These compounds were tested against T1, JAK2 (JH1domain-catalytic, Y1007F,Y1008F) kinase (Homo sapiens, UniProt O60674, Y1007F/Y1008F) (assay: JAK2 JH1 Domain Binding Assay). Details: qPCR readout.
T1 construct: JAK2 (JH1domain-catalytic, Y1007F,Y1008F) kinase was expressed as N-terminal fusion; made in house; host or cells: transiently transfected HEK293 cells
T1 sequence (O60674 849-1124 Y1007F/Y1008F limits assumed): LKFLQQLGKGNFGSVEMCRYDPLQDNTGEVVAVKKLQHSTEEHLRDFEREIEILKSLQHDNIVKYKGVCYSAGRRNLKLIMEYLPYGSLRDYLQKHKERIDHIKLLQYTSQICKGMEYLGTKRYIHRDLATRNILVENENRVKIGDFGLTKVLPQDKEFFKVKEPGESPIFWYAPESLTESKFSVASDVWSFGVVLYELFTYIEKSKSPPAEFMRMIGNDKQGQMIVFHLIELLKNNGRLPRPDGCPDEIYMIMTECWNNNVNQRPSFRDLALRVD
With Cn1cc(C(F)(F)F)cc(Nc2nc3ncc(Oc4cnc5[nH]cc(C#N)c5c4)c(C#N)c3n2C)c1=O [Example I-300, 6-((3-cyano-1H-pyrrolo[2,3-b]pyridin-5-yl)oxy)-1-methyl-2-((1-methyl-2-oxo-5-(trifluoromethyl)-1,2-dihydropyridin-3-yl)amino)-1H-imidazo[4,5-b]pyridine-7-carbonitrile] the Kd was 50 to 1000 nM.
With CNc1ccc2c(Oc3cnc4nc(Nc5cc(C(F)(F)F)cn(C)c5=O)n(C)c4c3Cl)cnn2c1 [Example I-303, 3-((7-chloro-1-methyl-6-((6-(methylamino)pyrazolo[1,5-a]pyridin-3-yl)oxy)-1H-imidazo[4,5-b]pyridin-2-yl)amino)-1-methyl-5-(trifluoromethyl)pyridin-2(1H)-one] the Kd was less than 10 nM.
For Cn1c(Nc2cc(CN3CC[C@H](O)C3)cc(C(F)(F)F)c2)nc2ncc(Oc3cnn4ccncc34)c(Cl)c21 [Example I-205, (S)-1-(3-((7-chloro-1-methyl-6-(pyrazolo[1,5-a]pyrazin-3-yloxy)-1H-imidazo[4,5-b]pyridin-2-yl)amino)-5-(trifluoromethyl)benzyl)pyrrolidin-3-ol], the Kd was less than 10 nM.
With Cn1c(Nc2cc(C3CC3)cn(CCO)c2=O)nc2ncc(Oc3cnn4cccc(F)c34)c(Cl)c21 [Example I-141, 3-((7-chloro-6-((4-fluoropyrazolo[1,5-a]pyridin-3-yl)oxy)-1-methyl-1H-imidazo[4,5-b]pyridin-2-yl)amino)-5-cyclopropyl-1-(2-hydroxyethyl)pyridin-2(1H)-one] the Kd was less than 10 nM.
Cn1c(Nc2cc(C3CC3)cn(CCCN3CCCC(F)(F)C3)c2=O)nc2ncc(Oc3cnn4ccncc34)c(Cl)c21 [Example I-129, 3-((7-chloro-1-methyl-6-(pyrazolo[1,5-a]pyrazin-3-yloxy)-1H-imidazo[4,5-b]pyridin-2-yl)amino)-5-cyclopropyl-1-(3-(3,3-difluoropiperidin-1-yl)propyl)pyridin-2(1H)-one] showed a Kd of 10 to 50 nM.
Compound CNc1cn2ncc(Oc3cnc4nc(Nc5cc(C(F)(F)F)cn(C)c5=O)n(C)c4c3Cl)c2cn1 [Example I-304, 3-((7-chloro-1-methyl-6-((6-(methylamino)pyrazolo[1,5-a]pyrazin-3-yl)oxy)-1H-imidazo[4,5-b]pyridin-2-yl)amino)-1-methyl-5-(trifluoromethyl)pyridin-2(1H)-one] has a Kd of less than 10 nM.
Work on C[C@@H](O)Cn1nc(Nc2nc3ncc(Oc4cnn5ccncc45)c(Cl)c3n2C)cc1C(C)(C)C (single isomer, unassigned) [Example I-38] yielded a Kd of less than 10 nM.
Work on Cn1c(Nc2cc(C(C)(C)C)n([C@H]3CCOC3)n2)nc2ncc(Oc3cnn4ccncc34)c(C#N)c21 [Example I-137, (S)-2-((5-(tert-butyl)-1-(tetrahydrofuran-3-yl)-1H-pyrazol-3-yl)amino)-1-methyl-6-(pyrazolo[1,5-a]pyrazin-3-yloxy)-1H-imidazo[4,5-b]pyridine-7-carbonitrile] yielded a Kd of 10 to 50 nM.
In the case of Cn1c(Nc2cc(C(C)(C)C)n([C@@H]3CCN(CCF)C3)n2)nc2ncc(Oc3cnn4ccncc34)c(Cl)c21 [Example I-30, (R)—N-(5-(tert-butyl)-1-(1-(2-fluoroethyl)pyrrolidin-3-yl)-1H-pyrazol-3-yl)-7-chloro-1-methyl-6-(pyrazolo[1,5-a]pyrazin-3-yloxy)-1H-imidazo[4,5-b]pyridin-2-amine], the Kd is reported as less than 10 nM.
Compound Cn1c(Nc2cc(C(F)(F)F)cn([C@H]3C[C@@H](O)C3)c2=O)nc2ncc(Oc3cnn4ccccc34)c(C#N)c21 [Example I-167, cis-2-((1-(3-hydroxycyclobutyl)-2-oxo-5-(trifluoromethyl)-1,2-dihydropyridin-3-yl)amino)-1-methyl-6-(pyrazolo[1,5-a]pyridin-3-yloxy)-1H-imidazo[4,5-b]pyridine-7-carbonitrile] has a Kd of less than 10 nM.
Compound Cn1c(Nc2cc(C(F)(F)F)n(C3CC4(COC4)C3)n2)nc2ncc(Oc3cnc4[nH]ncc4c3)c(C#N)c21 [Example I-330, 6-((1H-pyrazolo[3,4-b]pyridin-5-yl)oxy)-2-((1-(2-oxaspiro[3.3]heptan-6-yl)-5-(trifluoromethyl)-1H-pyrazol-3-yl)amino)-1-methyl-1H-imidazo[4,5-b]pyridine-7-carbonitrile] has a Kd of less than 10 nM.
In the case of CNc1cn2ncc(Oc3cnc4nc(Nc5cc(C(F)(F)F)cn(-c6cccnc6)c5=O)n(C)c4c3Cl)c2cn1 [Example I-324, 3-((7-chloro-1-methyl-6-((6-(methylamino)pyrazolo[1,5-a]pyrazin-3-yl)oxy)-1H-imidazo[4,5-b]pyridin-2-yl)amino)-5-(trifluoromethyl)-2H-[1,3′-bipyridin]-2-one], the Kd is reported as 50 to 1000 nM.
Compound CN(C)[C@H]1CCN(Cc2cc(C(F)(F)F)cc(Nc3nc4ncc(Oc5cnn6ccncc56)c(Cl)c4n3C)c2F)C1 [Example I-285, (S)-7-chloro-N-(3-((3-(dimethylamino)pyrrolidin-1-yl)methyl)-2-fluoro-5-(trifluoromethyl)phenyl)-1-methyl-6-(pyrazolo[1,5-a]pyrazin-3-yloxy)-1H-imidazo[4,5-b]pyridin-2-amine] has a Kd of 10 to 50 nM.
Cn1c(Nc2cc(C(C)(C)C)n(CCC#N)n2)nc2ncc(Oc3cnn4ccncc34)c(Cl)c21 [Example I-61, 3-(5-(tert-butyl)-3-((7-chloro-1-methyl-6-(pyrazolo[1,5-a]pyrazin-3-yloxy)-1H-imidazo[4,5-b]pyridin-2-yl)amino)-1H-pyrazol-1-yl)propanenitrile] gave a Kd of less than 10 nM.
Work on Cn1c(Nc2cc(C3CC3)cn([C@H]3C[C@H](C#N)C3)c2=O)nc2ncc(Oc3cnn4ccncc34)c(Cl)c21 [Example I-77, trans-3-(3-((7-chloro-1-methyl-6-(pyrazolo[1,5-a]pyrazin-3-yloxy)-1H-imidazo[4,5-b]pyridin-2-yl)amino)-5-cyclopropyl-2-oxopyridin-1(2H)-yl)cyclobutane-1-carbonitrile] yielded a Kd of less than 10 nM.
Work on Cn1c(C#N)c(C(F)(F)F)cc(Nc2nc3ncc(Oc4cnn5ccncc45)c(Cl)c3n2C)c1=O [Example I-200, 5-((7-chloro-1-methyl-6-(pyrazolo[1,5-a]pyrazin-3-yloxy)-1H-imidazo[4,5-b]pyridin-2-yl)amino)-1-methyl-6-oxo-3-(trifluoromethyl)-1,6-dihydropyridine-2-carbonitrile] yielded a Kd of 10 to 50 nM.
Cn1c(Nc2cc(C(C)(C)C)n(CC#N)n2)nc2ncc(Oc3cnn4ccncc34)c(C(F)F)c21 [Example I-63, 2-(5-(tert-butyl)-3-((7-(difluoromethyl)-1-methyl-6-(pyrazolo[1,5-a]pyrazin-3-yloxy)-1H-imidazo[4,5-b]pyridin-2-yl)amino)-1H-pyrazol-1-yl)acetonitrile] gave a Kd of 10 to 50 nM.
Compound CNc1cn2ncc(Oc3cnc4nc(Nc5cc(N6CCN(C)CC6)cc(C(F)(F)F)c5)n(C)c4c3Cl)c2cn1 [Example I-351, 7-chloro-1-methyl-6-((6-(methylamino)pyrazolo[1,5-a]pyrazin-3-yl)oxy)-N-(3-(4-methylpiperazin-1-yl)-5-(trifluoromethyl)phenyl)-1H-imidazo[4,5-b]pyridin-2-amine] has a Kd of 10 to 50 nM.
For CN1CCCCC1COc1cc(Nc2nc3ncc(Oc4cnn5ccncc45)c(Cl)c3n2C)cc(C(F)(F)F)c1 (single isomer, unassigned) [Example I-350-b], the Kd was less than 10 nM.
Cn1c(Nc2cc(C3CC3)cn([C@H]3CC[C@H]3O)c2=O)nc2ncc(Oc3cnn4ccncc34)c(Cl)c21 (single isomer, unassigned) [Example I-98-b] showed a Kd of less than 10 nM.
In the case of Cn1cc(C2CC2)cc(Nc2nc3ncc(Oc4cnn5ccncc45)c(C(F)F)c3n2C)c1=O [Example I-59, 5-cyclopropyl-3-((7-(difluoromethyl)-1-methyl-6-(pyrazolo[1,5-a]pyrazin-3-yloxy)-1H-imidazo[4,5-b]pyridin-2-yl)amino)-1-methylpyridin-2(1H)-one], the Kd is reported as less than 10 nM.
Work on CNc1nccn2ncc(Oc3cnc4nc(Nc5ccc(CN6CC(C#N)C6)c(C(F)(F)F)c5)n(C)c4c3Cl)c12 [Example I-216, 1-(4-((7-chloro-1-methyl-6-((4-(methylamino)pyrazolo[1,5-a]pyrazin-3-yl)oxy)-1H-imidazo[4,5-b]pyridin-2-yl)amino)-2-(trifluoromethyl)benzyl)azetidine-3-carbonitrile] yielded a Kd of 10 to 50 nM.
With Cn1c(Nc2cc(C(F)(F)F)cn(CCCN3CCOCC3)c2=O)nc2ncc(Oc3cnn4ccccc34)c(C#N)c21 [Example I-159, 1-methyl-2-((1-(3-morpholinopropyl)-2-oxo-5-(trifluoromethyl)-1,2-dihydropyridin-3-yl)amino)-6-(pyrazolo[1,5-a]pyridin-3-yloxy)-1H-imidazo[4,5-b]pyridine-7-carbonitrile] the Kd was less than 10 nM.
Cn1c(Nc2cc(C(F)(F)F)cn(CCO)c2=O)nc2ncc(Oc3cnn4cc(F)ccc34)c(Cl)c21 [Example I-163, 3-((7-chloro-6-((6-fluoropyrazolo[1,5-a]pyridin-3-yl)oxy)-1-methyl-1H-imidazo[4,5-b]pyridin-2-yl)amino)-1-(2-hydroxyethyl)-5-(trifluoromethyl)pyridin-2(1H)-one] showed a Kd of less than 10 nM.
With Cn1c(Nc2cc(C(F)(F)F)cn([C@H]3C[C@@H](O)C3)c2=O)nc2ncc(Oc3cnn4cc(F)ccc34)c(Cl)c21 [Example I-162, cis-3-((7-chloro-6-((6-fluoropyrazolo[1,5-a]pyridin-3-yl)oxy)-1-methyl-1H-imidazo[4,5-b]pyridin-2-yl)amino)-1-(3-hydroxycyclobutyl)-5-(trifluoromethyl)pyridin-2(1H)-one] the Kd was less than 10 nM.
For CNc1cn2ncc(Oc3cnc4nc(Nc5cc(C(F)(F)F)cn(C)c5=O)n(C)c4c3OC)c2cn1 [Example I-318, 3-((7-methoxy-1-methyl-6-((6-(methylamino)pyrazolo[1,5-a]pyrazin-3-yl)oxy)-1H-imidazo[4,5-b]pyridin-2-yl)amino)-1-methyl-5-(trifluoromethyl)pyridin-2(1H)-one], the Kd was 10 to 50 nM.
In the case of Cn1cc(C(F)(F)F)cc(Nc2nc3ncc(Oc4cnc5[nH]cc(F)c5c4)c(C#N)c3n2C)c1=O [Example I-289, 6-((3-fluoro-1H-pyrrolo[2,3-b]pyridin-5-yl)oxy)-1-methyl-2-((1-methyl-2-oxo-5-(trifluoromethyl)-1,2-dihydropyridin-3-yl)amino)-1H-imidazo[4,5-b]pyridine-7-carbonitrile], the Kd is reported as 10 to 50 nM.

— US12043632B2, “6-heteroaryloxy benzimidazoles and azabenzimidazoles as JAK2 inhibitors” (Ajax Therapeutics, Inc., priority 2020, dated 2024)
